In patent US11969397B2, “Composition for preventing and treating transplant rejection or transplant rejection diseases, comprising novel compound and calcineurin inhibitor” (THE CATHOLIC UNIVERSITY OF KOREA INDUSTRY-ACADEMIC …, priority 2018, dated 2024):

Tests used:
pathogenic Th17 cells = test: Inhibition of pathogenic Th17 cells / IL-17 in in vitro allogenic model (mouse cells); type: cell-based; conditions: 4 days, anti-CD3 0.1 μg/ml, SD282 50, 250, 500 μM, FK506 1, 5 nM, combination FK506 1, 5 nM + SD282 250 μM
Description: (§1) CD4+ T cells derived from a normal recipient (Balb/c, responder) (2×10^5 cells) were injected into each well of a 96-well round bottom plate, in vitro. Thereafter, for syngenic transplantation, normal recipient-derived T cell-removed splenocytes (2×10^5 cells), which had been irradiated with radiation, were added to each of the wells, followed by culturing under mixing. For allogenic transplantation, donor (C57BL/6, stimulator)-derived T cell-removed splenocytes were added to each of the wells, followed by culturing under mixing.
The T cell response regulates the activity of Th17 (T helper 17 cell)/IL-17 (Interleukin 17) and IL-17 is classified as an inflammatory cytokine. […] We also evaluated inhibitory activity against inflammatory cytokines according to the treatments with SD282 and FK506 alone or in combination. The untreated syngenic group and the untreated allogenic group of Example 1-1 were used as controls. The allogenic models were treated with 50, 250 and 500 μM of SD282 alone or 1 and 5 nM of FK506 alone. And, FK506 (1 and 5 nM) and SD282 (250 μM) were treated in combination, respectively. After the treatments, each group was cultured for 4 days and then stimulated with anti-CD3 (0.1 μg/ml). The inhibitory efficacy against IL-17+CD4+ T cells and IL-17 was evaluated by analyzing the cultured Th17 cells according to the ELISA method; and the proliferation of Fox3+ Treg cells was evaluated through the analysis of Treg cells.

allogenic T cells = test: T cell proliferation in in vitro allogenic transplantation model (mouse cells); type: cell-based; conditions: cultured 4 days; for T cell proliferation (3H-thymidine incorporation, FIG. 1): SD282 alone 250 μM or more, FK506 alone 1 and 5 nM, combination FK506 1 and 5 nM + SD282 250 μM; for T cell proliferation (flow cytometry, FIG. 2): SD282 alone, FK506 alone or combination
Description: as §1
In order to evaluate T cell proliferations according to the treatment with SD282 alone, FK506 alone or in combination thereof, the untreated syngenic group and the untreated allogenic group of Example 1-1 were used as controls. The allogenic model was treated with 50, 250 and 500 μM of SD282 alone or 1 and 5 nM of FK506 alone. And, FK506 (1 and 5 nM) and SD282 (250 μM) were treated in combination, respectively. After the treatments, each group was cultured for 4 days and then alloresponses were evaluated by observing the T cell proliferations of the cultured cells, according to the 3H-thymidine incorporation method, the CFSE assay method, or the flow cytometry method.
In addition, in order to evaluate the synergistic effect according to the treatment of SD282 and FK506 in combination, the Combination Index (CI) value (drug treatment) was calculated. The CI value was obtained by the following equation. A value of 1 or less means that there is a synergistic effect between the combination of two drugs, and a value of 1 or more means that there is an antagonistic effect between the combination of two drugs.

IL-17, IFN-γ and TNF-α = test: Inflammatory cytokines in normal human PBMCs under allo-response (ELISA); type: cell-based; conditions: allogenic, 4 days, compared to the group treated with FK506 alone
Description: In order to evaluate the inhibitions against the activities of inflammatory cytokines according to the treatment with SD282 alone, FK506 alone, or in combination thereof in normal human peripheral blood cells (PBMCs), an untreated syngenic group and an untreated allogenic group were used as controls. Allogenic models were treated with 5, 250 and 500 μM of SD282 alone or 1 and 5 nM of FK506 alone. And, 1 and 5 nM of FK506 and 250 μM SD282 were treated in combination, respectively. After the treatments, each group was cultured for 4 days and then the inhibitory effects against IL-17, IFN-γ and TNF-α in the cultured cells was evaluated according to the ELISA method, so as to evaluate alloresponses.

[1] = test system: allogenic T cells (normal human PBMCs); test: T cell proliferation in normal human PBMCs (MLR, CFSE); type: cell-based; parameters: T cell proliferation (FIG. 13a): dose or concentration left out as unconfirmed; conditions: for proliferation of allogenic T cells (FIG. 13b): 4 days, FK506 1 and 5 nM, SD282 alone, combination FK506 1, 5 nM + SD282 250 μM
Description: In order to evaluate the T cell proliferations according to the treatment with SD282 alone, FK506 alone, or in combination thereof in normal human PBMCs (peripheral blood mononuclear cells, PBMCs), mixed leukocyte reaction (MLR) and CFSE (carboxyfluorescein succinimidyl ester) staining were performed. An untreated syngenic group and an untreated allogenic group were used as controls. […] And, FK506 (1 and 5 nM) and SD282 (250 μM) were treated in combination, respectively. After the treatments, each group was cultured for 4 days and then alloresponses were evaluated by observing the T cell proliferations of the cultured cells, according to the 3H-thymidine incorporation method or the flow cytometry method.

[2] = test system: PBMCs of a liver-transplanted patient; test: Microarray / KEGG pathway and gene regulation in PBMCs of a liver-transplanted patient; type: cell-based, human; conditions: CD3 stimulation, 48 hours, SD282 250 μM
Description: In order to investigate changes in the signal factors related to immune cell modulation according to drug treatments in the peripheral blood cells (PBMCs) of a liver-transplanted patient, the PBMCs were treated with 250 μM of SD282 alone, 5 nM of FK506 alone, and the combination thereof, under the condition of TCR stimulation (under the CD3 stimulation). After culturing for 48 hours, the microarray analyses thereof were carried out by Macrogen, Inc.

Foxp3 Treg cells = test: Treg activity under Th17 differentiation condition in in vitro allogenic model (mouse cells); type: cell-based; conditions: 4 days, SD282 20 and 500 μM, FK506 1 and 5 nM, combination FK506 1, 5 nM + SD282 250 μM
Description: as §1
The allogenic models of Example 1-1 were treated with 20 and 500 μM of SD282 alone or 1 and 5 nM of FK506 alone. And, FK506 (1 and 5 nM) and SD282 (250 μM) were treated in combination, respectively. The isolated T cells were cultured for 4 days under the condition of Th17 cell differentiation so as to induce the differentiation to Th17 cells.

Compound	IL-17+CD4+ T cells (%) / proliferation of pathogenic Th17 cells (pathogenic Th17 cells)	activity of the inflammatory cytokine IL-17 (ELISA) (pathogenic Th17 cells)	T cell proliferation (3H-thymidine incorporation, FIG. 1) (allogenic T cells)	T cell proliferation (flow cytometry, FIG. 2) (allogenic T cells)	activity of IFN-γ (ELISA) (IL-17, IFN-γ and TNF-α)	activity of IL-17 (ELISA) (IL-17, IFN-γ and TNF-α)	activity of TNF-α (ELISA) (IL-17, IFN-γ and TNF-α)	proliferation of allogenic T cells (FIG. 13b) [1]	T cell proliferation (FIG. 13a) ([1]; 4 days, or more of SD282 alone, compared to control group)	various pathways increased in a liver-transplanted patient (KEGG) [2]	proliferation of Treg cells (Foxp3, flow cytometry) (Foxp3 Treg cells)	IL-17+CD4+ T cells (%) / proliferation of pathogenic Th17 cells (pathogenic Th17 cells; listed as Fk506)	activity of the inflammatory cytokine IL-17 (ELISA) (pathogenic Th17 cells; listed as Fk506)	proliferation of Treg cells (Foxp3, flow cytometry) (Foxp3 Treg cells; listed as Fk506)
CCN(C(=N)NC(=N)N)c1ccc(F)cc1 [SD282]	inhibited	inhibited	significantly inhibited	inhibited	more significantly inhibited	more significantly inhibited	more significantly inhibited	significantly inhibited	inhibited	inhibited	significantly increased	–	–	–
C=CC[C@@H]1/C=C(\C)C[C@H](C)C[C@H](OC)[C@H]2O[C@@](O)(C(=O)C(=O)N3CCCC[C@H]3C(=O)O[C@H](/C(C)=C/[C@@H]3CC[C@@H](O)[C@H](OC)C3)[C@H](C)[C@@H](O)CC1=O)[C@H](C)C[C@@H]2OC [FK506, tacrolimus]	did not effectively inhibit	did not effectively inhibit	not effective	inhibited	–	–	–	not effective	–	–	did not increase	inhibited	inhibited	significantly increased
